# Data published in the OligoGym collection.
# Oligonucleotides are given in HELM: sugar(base)linkage, 5' to 3'; d 2'-deoxyribose, r ribose, m 2'-O-methylribose, p phosphate. ss, as = sense and antisense strand
# Molecular target: UBE2N
# Experiment: reporter assay of Huesken 2005
# Conditions: siRNA
# Further: test concentration or dose not given here.
row,Substance,normalised inhibition (eCFP-eYFP dual reporter) [%]
1,RNA1{r(C)p.r(C)p.r(A)p.r(U)p.r(U)p.r(A)p.r(G)p.r(C)p.r(A)p.r(A)p.r(A)p.r(U)p.r(G)p.r(A)p.r(U)p.r(G)p.r(U)p.r(A)p.r(G)p.d(T)p.d(T)}|RNA2{r(C)p.r(U)p.r(A)p.r(C)p.r(A)p.r(U)p.r(C)p.r(A)p.r(U)p.r(U)p.r(U)p.r(G)p.r(C)p.r(U)p.r(A)p.r(A)p.r(U)p.r(G)p.r(G)p.d(A)p.d(T)}$$$RNA1{StrandType:ss}|RNA2{StrandType:as}$,77.9
2,RNA1{r(C)p.r(C)p.r(C)p.r(A)p.r(A)p.r(G)p.r(C)p.r(C)p.r(A)p.r(U)p.r(A)p.r(G)p.r(A)p.r(A)p.r(A)p.r(C)p.r(A)p.r(G)p.r(C)p.d(T)p.d(T)}|RNA2{r(G)p.r(C)p.r(U)p.r(G)p.r(U)p.r(U)p.r(U)p.r(C)p.r(U)p.r(A)p.r(U)p.r(G)p.r(G)p.r(C)p.r(U)p.r(U)p.r(G)p.r(G)p.r(G)p.d(C)p.d(T)}$$$RNA1{StrandType:ss}|RNA2{StrandType:as}$,60.2
3,RNA1{r(C)p.r(C)p.r(U)p.r(A)p.r(A)p.r(U)p.r(G)p.r(U)p.r(A)p.r(G)p.r(A)p.r(C)p.r(A)p.r(A)p.r(G)p.r(U)p.r(U)p.r(G)p.r(G)p.d(T)p.d(T)}|RNA2{r(C)p.r(C)p.r(A)p.r(A)p.r(C)p.r(U)p.r(U)p.r(G)p.r(U)p.r(C)p.r(U)p.r(A)p.r(C)p.r(A)p.r(U)p.r(U)p.r(A)p.r(G)p.r(G)p.d(A)p.d(T)}$$$RNA1{StrandType:ss}|RNA2{StrandType:as}$,69.4
4,RNA1{r(C)p.r(G)p.r(A)p.r(A)p.r(G)p.r(C)p.r(C)p.r(C)p.r(A)p.r(A)p.r(G)p.r(C)p.r(C)p.r(A)p.r(U)p.r(A)p.r(G)p.r(A)p.r(A)p.d(T)p.d(T)}|RNA2{r(U)p.r(U)p.r(C)p.r(U)p.r(A)p.r(U)p.r(G)p.r(G)p.r(C)p.r(U)p.r(U)p.r(G)p.r(G)p.r(G)p.r(C)p.r(U)p.r(U)p.r(C)p.r(G)p.d(T)p.d(T)}$$$RNA1{StrandType:ss}|RNA2{StrandType:as}$,84.1
5,RNA1{r(C)p.r(G)p.r(U)p.r(U)p.r(U)p.r(C)p.r(A)p.r(U)p.r(G)p.r(A)p.r(C)p.r(C)p.r(A)p.r(A)p.r(A)p.r(A)p.r(U)p.r(U)p.r(U)p.d(T)p.d(T)}|RNA2{r(A)p.r(A)p.r(A)p.r(U)p.r(U)p.r(U)p.r(U)p.r(G)p.r(G)p.r(U)p.r(C)p.r(A)p.r(U)p.r(G)p.r(A)p.r(A)p.r(A)p.r(C)p.r(G)p.d(T)p.d(A)}$$$RNA1{StrandType:ss}|RNA2{StrandType:as}$,100
6,RNA1{r(C)p.r(U)p.r(A)p.r(A)p.r(A)p.r(G)p.r(U)p.r(A)p.r(C)p.r(G)p.r(U)p.r(U)p.r(U)p.r(C)p.r(A)p.r(U)p.r(G)p.r(A)p.r(C)p.d(T)p.d(T)}|RNA2{r(G)p.r(U)p.r(C)p.r(A)p.r(U)p.r(G)p.r(A)p.r(A)p.r(A)p.r(C)p.r(G)p.r(U)p.r(A)p.r(C)p.r(U)p.r(U)p.r(U)p.r(A)p.r(G)p.d(G)p.d(G)}$$$RNA1{StrandType:ss}|RNA2{StrandType:as}$,79.5
7,RNA1{r(C)p.r(U)p.r(A)p.r(G)p.r(A)p.r(U)p.r(A)p.r(U)p.r(U)p.r(U)p.r(U)p.r(G)p.r(A)p.r(A)p.r(A)p.r(G)p.r(A)p.r(U)p.r(A)p.d(T)p.d(T)}|RNA2{r(U)p.r(A)p.r(U)p.r(C)p.r(U)p.r(U)p.r(U)p.r(C)p.r(A)p.r(A)p.r(A)p.r(A)p.r(U)p.r(A)p.r(U)p.r(C)p.r(U)p.r(A)p.r(G)p.d(A)p.d(C)}$$$RNA1{StrandType:ss}|RNA2{StrandType:as}$,85.6
8,RNA1{r(C)p.r(U)p.r(C)p.r(C)p.r(C)p.r(A)p.r(A)p.r(U)p.r(C)p.r(C)p.r(A)p.r(G)p.r(A)p.r(U)p.r(G)p.r(A)p.r(U)p.r(C)p.r(C)p.d(T)p.d(T)}|RNA2{r(G)p.r(G)p.r(A)p.r(U)p.r(C)p.r(A)p.r(U)p.r(C)p.r(U)p.r(G)p.r(G)p.r(A)p.r(U)p.r(U)p.r(G)p.r(G)p.r(G)p.r(A)p.r(G)p.d(C)p.d(A)}$$$RNA1{StrandType:ss}|RNA2{StrandType:as}$,58.7
